Usually IC50 stands for the concentration that gives 50% inhibition.

One series has as its system MDA-MB-231. Description: MTT cytotoxicity assay, MDA-MB-231. It is filed as cell-based. Particulars: Homo sapiens, 24 h treatment, mean ± SD of triplicate. The method, then:
(§1) Subsequently, 100 µL of dimethyl sulfoxide was introduced to dissolve the insoluble formazan.
Background: Tetrazolium assays rely on reduction of a dye to a coloured formazan, in cell work by metabolically active cells.

A further series deals with HeLa. Description: MTT cytotoxicity assay, HeLa. It counts as cell-based. As to conditions: Homo sapiens, 24 h treatment, mean ± SD of triplicate. The method, then:
as §1

A short description of series [1]: MTT cytotoxicity assay, normal cell line WI-38. As to conditions: human, WI-38 cells (normal human lung fibroblasts), normal (non-cancer) cell line, 24 h treatment. It counts as cell-based, human. How it is done:
as §1

In another series the test system is HCT-116. As to the kind of experiment: MTT cytotoxicity assay, HCT-116. It counts as cell-based. Particulars: Homo sapiens, 24 h treatment, mean ± SD of triplicate. How it is done: as §1
In series [2] the test system is MCF-7. Description: MTT cytotoxicity assay, MCF-7. It is filed as cell-based, human. As to conditions: 24 h treatment, mean ± SD of triplicate. The method, then: as §1
The test system of series [3] is HCT-116, MDA-MB-231, HeLa, and MCF-7. As to the kind of experiment: MTT cytotoxicity assay, ranges stated over several cell lines. It is filed as cell-based. As to conditions: Homo sapiens, HCT-116, MDA-MB-231, HeLa, MCF-7; range; read-out: IC50 values, range over the cancer cell lines tested. How it is done:
as §1

Series [4] relates to MCF-7. As to the kind of experiment: In vitro anti-estrogenic activity assay, MCF-7.
In a further series the test system is MCF-7a. Description: In vitro anti-estrogenic activity assay, MCF-7a.
The mark [5] stands for this setting: cell count relative to the control (17β-E2).

With `O=C(/C=C/c1ccc(OCc2ccccc2)cc1)c1ccccc1` [Compound 4i, (E)-3-(4-(Benzyloxy)phenyl)-1-phenylprop-2-en-1-one], the half-maximal inhibitory concentration (IC50) in the series on MDA-MB-231 is above 100 µM; in the series with HeLa, above 100 µM; in the series on HCT-116, above 100 µM; with MCF-7 [2] it was 85.5 ± 4.3 µM; in the series on MCF-7 [2] (Homo sapiens, MCF7, 24 h), above 100 µM. The compound also returned an IC50 at 24 h in series [1] above 100 µM.
As to `COc1cccc(C(=O)/C=C/c2cccc(OCc3ccccc3)c2)c1` [Compound 4p, (E)-3-(3-(Benzyloxy)phenyl)-1-(3-methoxyphenyl)prop-2-en-1-one], the IC50 is 68.4 ± 3.7 µM with MDA-MB-231; 45.2 ± 2.4 µM with HeLa; 39.8 ± 2.4 µM with HCT-116; 23.5 to 74.5 µM in series [3]; 57.1 ± 3.2 µM in the series with MCF-7 [2] (Homo sapiens, MCF7, 24 h). The compound also showed a half-inhibitory concentration (IC50) at 24 h in series [1] of 92.1 ± 4.9 µM.
Take `C[C@]12CC[C@@H]3c4ccc(O)cc4CC[C@H]3[C@@H]1CC[C@@H]2O` [Compound 17β-E2, 17β estradiol, reference compound]: in the series on MCF-7 [4] (setting [5]), the “Cell Proliferation MCF-7 %” value was 100%. In the series with MCF-7 [4] (mean ± SD of triplicate), the “Cell Proliferation MCF-7 Cell Count” value is listed as 18,524 ± 659. Besides, the “Cell Proliferation MCF-7a %” value with MCF-7a (setting [5]) turned out to be 100%. In addition, in the series on MCF-7a (mean ± SD of triplicate), the “Cell Proliferation MCF-7a Cell Count” value was 20,776 ± 600.
Consider `O=C(/C=C/c1cccc(OCc2ccccc2)c1)c1ccccc1` [Compound 4h, (E)-3-(3-(Benzyloxy)phenyl)-1-phenylprop-2-en-1-one], for which the concentration for half-maximal inhibition (IC50) in the series with MDA-MB-231 was 53.8 ± 3.3 µM; in the series on HeLa it was 25.6 ± 1.8 µM; with HCT-116 it was 46.8 ± 2.7 µM; in series [3] it was 23.5 to 74.5 µM; in the series with MCF-7 [2] (Homo sapiens, MCF7, 24 h), 42.1 ± 2.4 µM. Further, the half-maximal inhibitory concentration (IC50) at 24 h in series [1] was 83.4 ± 4.2 µM.
For `O=C(/C=C/c1ccccc1OCc1ccccc1)c1ccccc1` [Compound 4g, (E)-3-(2-(Benzyloxy)phenyl)-1-phenylprop-2-en-1-one], the IC50 was 59.2 ± 3.5 µM in the series on MDA-MB-231; 36.5 ± 2.4 µM in the series with HeLa; 54 ± 3 µM with HCT-116; 23.5 to 74.5 µM in series [3]; 48.4 ± 2.6 µM in the series with MCF-7 [2] (Homo sapiens, MCF7, 24 h). Half-maximal inhibition in series [1] (IC50 at 24 h) was put at 27.8 ± 1.9 µM.
For the compound `COc1cccc(C(=O)/C=C/c2ccc(Cl)cc2)c1` [Compound 4k, (E)-3-(4-Chlorophenyl)-1-(3-methoxyphenyl)prop-2-en-1-one], the half-maximal inhibitory concentration (IC50) was above 100 µM with MDA-MB-231; above 100 µM in the series with HeLa; above 100 µM with HCT-116; above 100 µM with MCF-7 [2] (Homo sapiens, MCF7, 24 h). Further, the IC50 at 24 h in series [1] is above 100 µM.
Consider `COc1ccc(C(=O)/C=C/c2ccc(Cl)cc2)cc1` [Compound 4n, (E)-3-(4-Chlorophenyl)-1-(4-methoxyphenyl)prop-2-en-1-one], for which the IC50 in the series with MDA-MB-231 was 48.6 ± 2.8 µM; in the series on HeLa, 74.5 ± 3.9 µM; with HCT-116, 66.1 ± 3.8 µM; in series [3] it was 23.5 to 74.5 µM; with MCF-7 [2] (Homo sapiens, MCF7, 24 h), 37 ± 2.3 µM. The compound also had an IC50 at 24 h in series [1] of 61.5 ± 3.4 µM.
Regarding `COc1ccc(/C=C/C(=O)c2ccc(OC)cc2)cc1` [Compound 4o, (E)-1,3-bis(4-Methoxyphenyl)prop-2-en-1-one], the IC50 in the series with MDA-MB-231 was 73.5 ± 4 µM; in the series with HeLa it was above 100 µM; in the series with HCT-116 it was 89.2 ± 4.5 µM; in series [3] it was 61.9 to 91.7 µM; with MCF-7 [2] (Homo sapiens, MCF7, 24 h), 61.9 ± 3.4 µM. The same compound registered a concentration for half-maximal inhibition (IC50) at 24 h in series [1] of 24.2 ± 1.7 µM.
For `COc1ccc(C(=O)/C=C/c2ccccc2)cc1` [Compound 4m, (E)-1-(4-Methoxyphenyl)-3-phenylprop-2-en-1-one], the IC50 is 45.9 ± 2.6 µM with MDA-MB-231; 63.6 ± 3.7 µM with HeLa; 59.6 ± 3.5 µM in the series on HCT-116; 23.5 to 74.5 µM in series [3]; 33 ± 2 µM in the series with MCF-7 [2] (Homo sapiens, MCF7, 24 h). The compound also registered a 50% inhibitory concentration (IC50) at 24 h in series [1] of 87.6 ± 4.6 µM.
As for `COc1ccc(C(=O)/C=C/c2ccc(OCc3ccccc3)cc2)cc1` [Compound 4s, (E)-3-(4-(Benzyloxy)phenyl)-1-(4-methoxyphenyl)prop-2-en-1-one], the IC50 was 82.4 ± 4.1 µM in the series with MDA-MB-231; 87 ± 4.3 µM in the series with HeLa; 73.5 ± 3.9 µM in the series on HCT-116; 61.9 to 91.7 µM in series [3]; 64.2 ± 3.5 µM in the series on MCF-7 [2] (Homo sapiens, MCF7, 24 h). The compound also had an IC50 at 24 h in series [1] of 22.3 ± 1.6 µM.
In the case of `CCOc1ccc(/C=C/C(=O)c2ccccc2)cc1` [Compound 4f, (E)-3-(4-Ethoxyphenyl)-1-phenylprop-2-en-1-one], the IC50 in the series with MDA-MB-231 was 46.1 ± 2.4 µM; with HeLa, 49.6 ± 2.8 µM; in the series on HCT-116, 57.6 ± 3.3 µM; in series [3] it was 23.5 to 74.5 µM; in the series with MCF-7 [2] (Homo sapiens, MCF7, 24 h) it was 35.3 ± 2.1 µM. This compound came in with a half-maximal inhibitory concentration (IC50) at 24 h in series [1] of 64.7 ± 3.6 µM.
As to `COc1ccc(/C=C/C(=O)c2cccc(OC)c2)cc1` [Compound 4l, (E)-1-(3-Methoxyphenyl)-3-(4-methoxyphenyl) prop-2-en-1-one], the concentration for half-maximal inhibition (IC50) in the series with MDA-MB-231 was 91.7 ± 4.5 µM; with HeLa, 88.8 ± 4.6 µM; in the series with HCT-116 it was 84 ± 4.2 µM; in series [3], 61.9 to 91.7 µM; with MCF-7 [2] (Homo sapiens, MCF7, 24 h) it was 75.4 ± 3.8 µM. For the same compound, 16.2 ± 1.3 µM corresponded to half-maximal inhibition in series [1] (IC50 at 24 h).
In the case of `COc1ccc(C(=O)/C=C/c2cccc(OCc3ccccc3)c2)cc1` [Compound 4r, (E)-3-(3-(Benzyloxy)phenyl)-1-(4-methoxyphenyl)prop-2-en-1-one], the half-inhibitory concentration (IC50) was 51.8 ± 2.9 µM in the series on MDA-MB-231; 57 ± 3.2 µM with HeLa; 62.6 ± 3.7 µM in the series with HCT-116; 23.5 to 74.5 µM in series [3]; 39.3 ± 2.4 µM in the series on MCF-7 [2] (Homo sapiens, MCF7, 24 h). In series [1], the 50% inhibitory concentration (IC50) at 24 h is above 100 µM.
Consider `COc1cccc(C(=O)/C=C/c2ccccc2)c1` [Compound 4j, (E)-1-(3-Methoxyphenyl)-3-phenylprop-2-en-1-one], for which the IC50 was determined as 29.3 ± 1.9 µM in the series on MDA-MB-231; 34.9 ± 2.2 µM with HeLa; 24.6 ± 1.7 µM in the series on HCT-116; 18.8 ± 1.5 µM in the series with MCF-7 [2] (Homo sapiens, MCF7, 24 h). This compound showed an IC50 at 24 h in series [1] of 78.2 ± 3.9 µM.

Source of the values: paper PMC11766267 (International Journal of Molecular Sciences, 2025).
